Measurements published in PubChem BioAssay AID1597 (NINDS Approved Drug Screening Program, 2009).
Inconclusive results are not listed.

The compounds below were run on Drosophila SCA1 polyglutamine model, toxicity suppression (assay: Reduction of SCA1 polyglutamine toxicity, EC50 from dose response in whole drosophila (AID 1597)).

Compound	EC50
CCCCCCCCCCCCCCCC(=O)OC/C=C(C)/C=C/C=C(C)/C=C/C1=C(C)CCCC1(C)C	275 nM
OCC(S)CS (centres undefined)	300 nM
CC(=O)OCC(=O)[C@H]1CCC2C3CCC4=CC(=O)CC[C@]4(C)C3CC[C@@]21C (some centres undefined)	3000 nM
C[N+](C)(C)CC(=O)[O-]	3000 nM
NS(=O)(=O)c1cc(C2(O)NC(=O)c3ccccc32)ccc1Cl (centres undefined)	5000 nM
C=C1C2CC[C@H]3[C@]4(C)C[C@H](OC5OC(CO)C(OS(=O)(=O)O)C(OS(=O)(=O)O)C5OC(=O)CC(C)C)C[C@@H](C(=O)O)[C@H]4CC[C@]3(C2)[C@H]1O (some centres undefined)	225 nM
NC(Cc1cc(I)c(Oc2ccc(O)c(I)c2)c(I)c1)C(=O)O (centres undefined)	5000 nM
Cc1cc(C(C)(C)C)cc(C)c1CC1=NCCN1	250 nM
N#C/C(=C\c1ccc(O)cc1)C(=O)O	50 nM
CN1CCOC(c2ccccc2)c2ccccc2C1 (centres undefined)	50 nM
C[C@@H]1O[C@@H](O[C@H]2[C@H](Oc3cc(O)c4c(c3)O[C@H](c3ccc(O)cc3)CC4=O)O[C@H](CO)[C@@H](O)[C@@H]2O)[C@H](O)[C@H](O)[C@H]1O	5000 nM
C[N+](C)(C)CCOC(N)=O	3000 nM
C[C@@H]1CC2C3CCC4=CC(=O)C=C[C@]4(C)[C@@]3(F)[C@@H](O)C[C@]2(C)[C@@]1(O)C(=O)COP(=O)(O)O (some centres undefined)	750 nM
CC(N)CCCC(C)(C)O (centres undefined)	50 nM
